Experiments:
[1] = system: MCF-7 cells (human breast cancer cells); test: antitumor activity against breast cancer cells, cell counting; assay type: cell-based; conditions: MCF7; MCF-7 human breast cancer cells, cultured 72 hours, cell counter
Description: MCF-7 cells (human breast cancer cells) subcultured in a culture medium composed of a MEM medium added with 10% fetal bovine serum, 25 mM HEPES and 0.1 mg/ml kanamycin under the conditions of 37° C. and 5% carbon dioxide gas were made into single floating cells by treating with trypsin/EDTA, and a single cell suspension of 4×10^4 cells per 1 ml was prepared using the MEM medium (added with 10% fetal bovine serum, 25 mM HEPES and 0.1 mg/ml kanamycin). After dissolving the test substances (Compound 2 and Compound 7) in DMSO, they were diluted with the MEM medium (added with 10% fetal bovine serum, 25 mM HEPES and 0.1 mg/ml kanamycin) and prepared so that the concentrations were 6.4×10^−8 to 2.0×10^−5 M.
0.1 ml of the cell suspension was placed into each well of a 96-well microplate, cultured for 24 hours to allow the cells to adhere to the microplate, then 0.1 ml of the sample solutions were added, and cultured for 72 hours at 37° C. in 5% carbon dioxide gas.
Afterwards, the cells in each well were made single floating cells by treating with trypsin/EDTA, and the number of cells was counted using a cell counter to obtain the growth inhibition rate at various sample concentrations and calculate the concentrations at which growth was inhibited by 50% (GI50 values [μM]).

[2] = system: P388 cells (mouse leukemia cells); test: in vitro antitumor activity test, P388 cells, XTT colorimetry; assay type: cell-based; conditions: cultured 72 hours
Method in brief: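 Cells from DBA/2 mouse ascites, in RPMI 1640 with 10% FBS and 25 mM HEPES, seeded from a 4×10^4 cells/ml suspension. Equal volume added of compound solutions prepared at 2.0×10^−9 to 2.0×10^−4 M (pre-mixing). After 72 h at 37° C, 5% CO2, growth read by XTT; GI50 (μM) is the concentration giving 50% growth inhibition.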

[3] = system: human prostate cancer PC-3; test: in vivo antitumor activity, nude mice transplanted with human prostate cancer PC-3; set-up: species or system BALB/c-nu/nu mice; conditions: PC-3 in nude mice, 400 mg/kg orally daily day 0 to day 13 (12 times), tumor volume at day 14
Description: (§1) Tumor tissue fragments of human prostate cancer PC-3 (3 mm×3 mm×3 mm) were transplanted subcutaneously into the chests of six-week-old female BALB/c-nu/nu mice, and sample administration started when the tumor volume reached at least approximately 100 mm^3 (day 0). Compound 2 was suspended in a 1% HPC (L) solution using an agate mortar. 400 mg/kg of Compound 2 was orally administered daily from day 0 to day 13 (excluding day 3 and day 10, a total of 12 times). Tumor diameters were measured to calculate tumor volume (½×long diameter×short diameter×short diameter), and the tumor volume after 14 days (at day 14) from the start of sample administration was divided by the tumor volume at the start of the administration to calculate relative tumor growth rate. The percentage of the relative tumor growth rate of the control group with respect to the relative tumor growth rate of the group administered with Compound 2 was taken as T/C (%).

[4] = system: human lung cancer A549; test: in vivo antitumor activity, nude mice transplanted with human lung cancer A549; set-up: species or system BALB/c-nu/nu mice; conditions: 400 mg/kg orally daily day 0 to day 13 (12 times), tumor volume at day 14
Description: as §1, with “of human lung cancer A549” for “of human prostate cancer PC-3”, “lung cancer A549 (3 mm×3” for “prostate cancer PC-3 (3 mm×3”, “Compound 2 and Compound 7 were suspended in” for “Compound 2 was suspended in”, “a 1% hydroxypropylcellulose (HPC [L]) solution using” for “a 1% HPC (L) solution using”, “day 10, a total of 12 times). 400 mg/kg of Compound 7 was intraperitoneally administered daily from day 0 to day 13 (excluding day 4 and day 11, a total” for “day 10, a total”, “Compound 2 or Compound 7 was taken” for “Compound 2 was taken”

[5] = system: PC-3 cells (human prostate cancer cells); test: in vitro antitumor activity test, PC-3 cells, XTT colorimetry; assay type: cell-based; conditions: PC-3 human prostate cancer cells, cultured 72 hours
Method in brief: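 PC-3 human prostate cancer cells, seeded at 2×10^4 cells/ml and allowed to adhere for 24 h, were exposed 72 h at 37° C, 5% CO2 to compound diluted in RPMI 1640 with 10% FBS to 2.0×10^−9 to 2.0×10^−4 M (pre-addition solutions). Growth was measured by XTT colorimetry and GI50 (μM) calculated.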

[6] = system: B16F10 cells (mouse melanoma [malignant melanoma] cells); test: in vitro antitumor activity test, B16F10 cells, XTT colorimetry; assay type: cell-based; conditions: B16-F10, cultured 72 hours
Method in brief: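 B16F10 mouse melanoma cells were seeded from a 1×10^4 cells/ml suspension and allowed to adhere for 24 h. Compounds in DMSO were diluted in RPMI 1640 with 10% FBS to 2.0×10^−9 to 2.0×10^−4 M and incubated 72 h at 37° C, 5% CO2. XTT colorimetry gave GI50 (μM).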

[7] = system: human colon cancer WiDr; test: in vivo antitumor activity, nude mice transplanted with human colon cancer WiDr; set-up: species or system BALB/c-nu/nu mice; conditions: 400 mg/kg orally daily day 0 to day 13 (12 times), tumor volume at day 14
Description: as §1, with “colon” for “prostate”, “WiDr” for “PC-3”

[8] = system: WiDr cells (human colon cancer cells); test: in vitro antitumor activity test, WiDr cells, XTT colorimetry; assay type: cell-based; conditions: cultured 72 hours
Method in brief: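 Human colon cancer cells in MEM/10% FBS were seeded 3×10^4 cells/ml and allowed to adhere for 24 h, then exposed to compounds prepared at 2.0×10^−9 to 2.0×10^−4 M in RPMI 1640 for 72 h at 37° C, 5% CO2. Growth was read by XTT colorimetry and GI50 (μM) calculated.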

[9] = system: A549 cells (human lung cancer cells); test: in vitro antitumor activity test, A549 cells, XTT colorimetry; assay type: cell-based; conditions: cultured 72 hours
Method in brief: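 Cells seeded at 2×10^4 cells/ml in MEM + 10% FBS, 25 mM HEPES, kanamycin, allowed to adhere 24 h, then exposed to compounds (DMSO stocks diluted in RPMI 1640; prepared at 2.0×10^−9 to 2.0×10^−4 M) for 72 h at 37 °C, 5% CO2. Growth inhibition read by XTT colorimetry; GI50 (μM) calculated.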

`CCc1nc2c(N3CCOCC3)nc(SCc3ccc(OC)c(N)c3)nc2n1C` [Compound 2, 2-(3-amino-4-methoxybenzylsulfanyl)-8-ethyl-9-methyl-6-morpholino-9H-purine] gave a GI50 [1] of 110 nM, a melting point of 139 °C and a GI50 [2] of 110 nM. For the same molecule, the T/C [3] was 32.2%, the T/C [4] was 73.1% and the GI50 [5] was 100 nM. The GI50 [6] was 300 nM, the T/C [7] was 62.1% and the GI50 [8] was 300 nM. It also gave a GI50 [9] of 140 nM.

— US9132130B2, “Purine derivative and antitumor agent using same” (ZENYAKU KOGYO KABUSHIKI KAISHA, priority 2009, dated 2015)
